From patent US20230303623A1, “PEPTIDES AND METHODS OF USE” (REALTA LIFE SCIENCES, INC., priority 2020, published 2023)
Entries after “also recorded” stand apart in the source; their conditions may differ.

Columns and labels:
HUVECs = experiment: LPS-induced non-VEGF mediated angiogenesis (tube formation) in HUVECs; assay type: cell-based, human; conditions: peptides 10 mg/ml; LPS 10 ug/ml; overnight
Method: HUVEC cells were incubated with either RLS-0122, RLS-0150, RLS-0154, RLS-0164 and RLS-0168 followed by LPS addition and plating onto extracellular matrix. After overnight incubation, evidence of angiogenesis was determined by fluorescence microscopy. Cells receiving LPS and not receiving LPS served as positive and negative controls for angiogenesis.
Currently there are no drugs on the market to inhibit non-VEGF mediated angiogenesis. To assess whether the PIC1 peptides could inhibit non-VEGF mediated angiogenesis, the inventors developed a model of angiogenesis using human umbilical endothelial vein cells (HUVECs) in which addition of lipopolysaccharide (LPS) induces angiogenesis. HUVECs were first incubated with Cell Trace Violet dye, followed by addition of PIC1 peptides (10 mg/ml) for 1 hour at 37° C. and then treated with 10 ug/ml of LPS and placement on an extracellular matrix to promote angiogenesis. Cells were incubated overnight at 37° C. in a humidified CO2 incubator. Cells were then visualized for tube formation indicative of angiogenesis by fluorescence microscopy.

CTLA-4 = biological target: T1, CTLA-4 (Homo sapiens, UniProt P16410); experiment: CTLA-4 Blockade Bioassay (Promega); assay type: cell-based; parameters: host or cells: Jurkat T cells (CTLA-4 effector cells) co-cultured with aAPC/Raji cells; conditions: increasing concentrations
T1 sequence (P16410 36-223): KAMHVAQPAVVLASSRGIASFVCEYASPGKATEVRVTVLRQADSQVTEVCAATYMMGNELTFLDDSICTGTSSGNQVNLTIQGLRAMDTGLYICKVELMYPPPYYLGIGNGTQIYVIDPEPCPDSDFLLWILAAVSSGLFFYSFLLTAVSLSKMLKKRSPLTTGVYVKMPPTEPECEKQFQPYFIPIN
Method: CTLA-4 effector cells were incubated with aAPC/Raji Cells in the absence or presence of increasing concentrations of anti-CTLA-4 antibody (positive control), RLS-0122, RLS-0150, RLS-0154, RLS-0164 and RLS-0168 and RLS-0088 (negative control). Luminescence was detected in luminometer plate reader. The drop-off in signal with the test peptides at high concentrations is due to cell death as a result of peptide buffer effects on the cells.
To assess if PIC1 peptides could block CTLA-4 inhibitory activity in a cell-based assay, select peptides were screened in the CTLA-4 Blockade Bioassay (Promega). This bioluminescent cell-based assay can be used to measure the potency and stability of molecules targeting CTLA-4 and consists of two genetically engineered cell lines: CTLA-4 effector cells: Jurkat T cells expressing human CTLA-4 and a luciferase reporter driven by a native promoter which responds to TCR/CD28 activation and aAPC/Raji Cells: Raji cells expressing an engineered cell surface protein designed to activate cognate TCRs in an antigen-independent manner and endogenously expressing CTLA-4 ligands CD80 and CD86. When the two cell types are co-cultured, CTLA-4 competes with CD28 for their shared ligands, CD80 and CD86 and thus inhibits CD28 pathway activation and promoter-mediated luminescence. Addition of a molecule that blocks the interaction of CTLA-4 with its ligands CD80 and CD86 results in promoter-mediated luminescence.

[1] = tested on: purified human Pan T-cells; experiment: T-cell exhaustion protocol (repeated CD3/CD28 Dynabead stimulation); assay type: cell-based; conditions: ELISA; for Caspase 3/7 levels, in words: peptides 2 mg/ml at each stimulation, day 8; for IFN-gamma levels in cell supernatants, in words / IL-2 levels in cell supernatants, in words: peptides 2 mg/ml, stimulation 2
Method: Purified human pan-T-cells were subject to stimulation with Dynabeads every 48 hours over the period of 8 days with cells also receiving PIC1 peptides (2 mg/ml) at each stimulation. Cells not receiving Dynabeads were run in parallel to assess background levels of Caspase 3/7 signal. At the eighth day, cells were harvested, and the levels of Caspase 3/7 determined by ELISA.
Purified human pan-T-cells were subject to stimulation with Dynabeads every 48 hours over the period of 8 days with cells also receiving PIC1 peptides (2 mg/ml) at each stimulation. Cell supernatants were collected at each stimulation and levels of IL-2 and IFN-gamma assayed by ELISA.
T-cell exhaustion is a form of T-cell dysfunction that occurs in cancer. It is generally defined by poor effector function, reduction in cytokine release (e.g., IL-2, TNF-alpha, IFN-gamma), sustained expression of inhibitory receptors (e.g., PD-1, LAG-3, CD244, CD160) with the progressive loss of effector function due to overstimulation. Exhaustion can prevent optimal control of tumor growth. Exhausted T cells are prevalent in the tumor microenvironment (TME) and can lead to T-cell apoptosis. T-cell exhaustion is reversible and pharmaceutical inhibition of T-cell exhaustion has been considered a promising strategy by many cancer researchers. To ascertain if PIC1 peptides could reverse T-cell exhaustion and increase T cell viability and effector function, a T-cell exhaustion protocol was developed. To induce T-cell exhaustion, purified human Pan T-cells were stimulated with T-Activator CD3/CD28 Dynabeads and cells were washed and re-stimulated every 48 hours. PIC1 peptides were added to the cells after each stimulation with Dynabeads. After three to four stimulations, cells were harvested for readouts which consisted of assessing T-cell apoptosis by measuring Caspase 3/7 levels and production of cytokines IL-2 and IFN-gamma, which are indicative of T-cell functionality. […] To further evaluate if PIC1 peptides could restore T-cell functionality in cells that have undergone the exhaustion protocol, the inventors next assessed production of cytokines IL-2 and IFN-gamma. Supernatants from the cells after each stimulation was collected and the cytokines measured by ELISA. […] The lower level of IFN-gamma signal was consistently seen in this assay.

VEGF [2] = biological target: T2, VEGF (Homo sapiens, UniProt P15692); experiment: VEGF Bioassay (Promega), VEGF signaling via VEGFR-2 (KDR); assay type: cell-based
T2 construct: Promega (bioassay)
T2 sequence (P15692 27-191 isoform P15692-4): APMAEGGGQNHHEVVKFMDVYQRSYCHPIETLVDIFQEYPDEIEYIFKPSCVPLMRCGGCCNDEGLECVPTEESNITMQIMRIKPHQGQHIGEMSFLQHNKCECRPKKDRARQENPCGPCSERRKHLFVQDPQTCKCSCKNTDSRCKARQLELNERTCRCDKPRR
Excerpt: Luminescence was detected in luminometer plate reader.
(§1) Angiogenesis, or the formation of new blood vessels from the established vasculature, is an essential element in tumor growth and metastasis formation. Inhibiting tumor angiogenesis is considered a major therapeutic strategy in oncology. […] The bioluminescent signal is detected in a luminometer.

VEGF [3] = biological target: T2, VEGF; experiment: VEGF binding ELISA plate-based assay; conditions: peptides 1 mg/ml
Method: A fixed amount of PIC1 peptides (1 mg/ml) were added to the plates followed by a rabbit polyclonal antibody that recognizes the peptides and then a secondary anti-rabbit antibody conjugated with HRP. The plate was then developed by addition of TMB as the substrate for the colorimetric assay.
as §1

[4] = Total Antioxidant Capacity (TAC) assay; conditions: highest peptide concentration 1.5 mM; compared to parent peptide
Method: As previously reported, the TAC (Total Antioxidant Capacity) Assay (Cell Biolabs, Inc, San Diego, CA) was used to measure the antioxidant capacity of the PIC1 variants based on the reduction of copper (II) to copper (I). The kit protocol was performed per the manufacturer's recommendations.
The antioxidant properties for the PIC1 variants were evaluated in a Total Antioxidant Capacity (TAC) assay, as previously reported. Total antioxidant activity over a range of peptide concentrations were determined for the stapled and the D-amino acid peptides based on the PA-I8Sar and PA-C9Sar backbones (FIG. 4A-4B), with the activity of the highest peptide concentration reported (1.5 mM) (FIG. 5A-5C).

[5] = without PEGylation; as described in U.S. Pat. No. 10,005,818; cited from earlier work
PD-1 binding to PD-L1 = biological target: T3, PD-1 binding to PD-L1 (Homo sapiens, UniProt Q9NZQ7); experiment: PD-1:PD-L1 inhibitor screening ELISA; conditions: FIG. 8
T3 construct: purchased
Method: PIC1 peptides were allowed to bind to immobilized PD-L1 on the surface of the plate. Biotinylated PD-1 was then added and bound PD-1 detected by streptavidin-HRP reagent followed by TMB as the substrate for the colorimetric assay.
This inhibitor screening ELISA pair was designed to facilitate the identification and characterization of new PD-1 pathway inhibitors. In this assay, biotinylated human PD-1 was bound to immobilized human PD-L1 and a colorimetric sandwich ELISA platform was used. Plates were coated with human PD-L1 followed by incubation with various PIC1 peptides. Human PD-1-Biotin was then allowed to bind the coated human PD-L1 followed by addition of streptavidin-HRP. TMB was then added as the colorimetric HRP substrate and the wells of the plate analyzed in a plate reader at an absorbance of 450 nm.
The immune checkpoint pathway is an area of significant interest in cancer research. PD-1 is one of the best characterized checkpoint proteins. The binding between PD-1 and its ligand PD-L1 suppresses T-cell activation and allows cancer cells to escape from body's immune surveillance. Therefore, the pharmaceutical inhibition of PD-1 or its ligand has been considered a promising strategy by many cancer researchers. To ascertain if these PIC1 derivatives could inhibit PD-1 interaction with PD-L1, a commercial ELISA kit was utilized. […]

T3 sequence (Q9NZQ7 19-238 limits assumed): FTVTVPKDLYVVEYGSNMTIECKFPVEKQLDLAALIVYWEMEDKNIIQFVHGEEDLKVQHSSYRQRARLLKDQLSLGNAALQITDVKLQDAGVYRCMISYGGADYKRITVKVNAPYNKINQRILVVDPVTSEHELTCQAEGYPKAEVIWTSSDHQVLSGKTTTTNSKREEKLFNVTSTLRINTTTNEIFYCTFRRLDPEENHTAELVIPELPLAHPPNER

With “IALILEPI(Sar)CQERdAA (IALILEPIXCQERAA; D-Ala; sarcosine; MOD_RES (9)..(9) Sarcosine; MOD_RES (14)..(14) D-amino acid) [PA-0168]” the “tube formation / angiogenesis inhibition, in words” value (HUVECs) was “no detectable tube formation”, the “inhibition of CTLA-4 mediated cell signaling (increase in luminescence), in words” value (CTLA-4; listed as RLS-0168) was “showed inhibitory activity; also recorded: able to inhibit CTLA-4 mediated cell signaling” and the “Caspase 3/7 levels, in words” value ([1]; listed as RLS-0168) was “very low to undetectable levels; also recorded: reduced levels”. For the same substance, the “IFN-gamma levels in cell supernatants, in words” value ([1]; listed as RLS-0168) was “detectable at stimulation 2; also recorded: increased levels”, the “IL-2 levels in cell supernatants, in words” value ([1]; listed as RLS-0168) was “detectable IL-2 at stimulation 2; also recorded: increased levels” and the “inhibition of VEGF signaling via VEGFR-2 (luminescence), in words” value (VEGF [2]) was “did not inhibit signaling”.

With “IALILEPI(Sar)dCQERAA (IALILEPIXCQERAA; D-Cys; sarcosine; MOD_RES (9)..(9) Sarcosine; MOD_RES (10)..(10) D-amino acid) [PA-0164]” the “tube formation / angiogenesis inhibition, in words” value (HUVECs) was “no detectable tube formation”, the “inhibition of CTLA-4 mediated cell signaling (increase in luminescence), in words” value (CTLA-4; listed as RLS-0164) was “showed inhibitory activity; also recorded: able to inhibit CTLA-4 mediated cell signaling” and the “binding to VEGF, in words” value (VEGF [3]) was “binding with high affinity”. For the same substance, the “total antioxidant capacity, in words” value [4] was “enhanced activity”, the “Caspase 3/7 levels, in words” value ([1]; listed as RLS-0164) was “decreased levels; also recorded: reduced levels” and the “IFN-gamma levels in cell supernatants, in words” value ([1]; listed as RLS-0164) was “showed IL-2 and IFN-gamma signal at stimulation 2; also recorded: increased levels”. For the same substance, the “IL-2 levels in cell supernatants, in words” value ([1]; listed as RLS-0164) was “showed IL-2 and IFN-gamma signal at stimulation 2; also recorded: increased levels” and the “inhibition of VEGF signaling via VEGFR-2 (luminescence), in words” value (VEGF [2]) was “did not inhibit signaling”.

In the case of “IALILEP(Sar)CCQERAA (IALILEPXCCQERAA; sarcosine at position 8; MOD_RES (8)..(8) Sarcosine) [PA-0088, parent peptide, sarcosine at position 8 of PIC1]”, the “inhibition of CTLA-4 mediated cell signaling (increase in luminescence), in words” value (CTLA-4) is given as “no inhibitory over background”, the solubility in water [5] is given as “water soluble without PEGylation” and the “inhibition of binding of PD-1 to PD-L1, in words” value (PD-1 binding to PD-L1) is given as “did not inhibit”.
